Key:
[1] = tested on: L1210; experiment: In vitro inhibitory concentration against L1210 leukemia cell line for antiproliferative activity; format: functional, cell-based; conditions: Mus musculus
[2] = tested on: L1210; experiment: Effect in the G2/M phase of L1210 leukemia cell with a significant percentage of cells having 8N DNA content at 5 uM; format: functional, Mus musculus
[3] = tested on: L1210; experiment: Effect in the G2/M phase of L1210 leukemia cell with a significant percentage of cells having 8N DNA content at 0.5 uM; format: functional, Mus musculus
[4] = tested on: L1210; experiment: Effect in the G1 phase of L1210 leukemia cell at 50 uM; format: functional, Mus musculus
[5] = tested on: NCI-H69; experiment: Tested for antiproliferative activity against H-69 tumoral cell line; format: functional, cell-based; conditions: Homo sapiens
[6] = tested on: KB; experiment: Tested for antiproliferative activity against KB-A1 tumoral cell line; format: functional, cell-based; conditions: Homo sapiens
[7] = tested on: P388; experiment: Tested for antiproliferative activity against P388 tumoral cell line; format: functional, cell-based; conditions: Mus musculus
[8] = tested on: B16; experiment: Tested for antiproliferative activity against B16 tumoral cell line; format: functional, cell-based; conditions: Mus musculus
[9] = tested on: DU-145; experiment: Tested for antiproliferative activity against DU145 tumoral cell line; format: functional, cell-based; conditions: Homo sapiens
[10] = tested on: KB 3-1; experiment: Tested for antiproliferative activity against KB 3-1 tumoral cell line; format: functional, cell-based; conditions: Homo sapiens
[11] = Concentration required to alter the assembly reaction of microtubules without any depolymerization effect; format: functional
[12] = tested on: P388/VCR-20; experiment: Tested for antiproliferative activity against VCR-20 tumoral cell line; format: functional, cell-based; conditions: Mus musculus
[13] = tested on: A2780; experiment: Tested for antiproliferative activity against A-2780 tumoral cell line; format: functional, cell-based; conditions: Homo sapiens
[14] = tested on: L1210; experiment: Tested for antiproliferative activity against L1210 tumoral cell line; format: functional, cell-based; conditions: Mus musculus
[15] = tested on: OVCAR-3; experiment: Tested for antiproliferative activity against Ovcar-3 tumoral cell line; format: functional, cell-based; conditions: Homo sapiens
[16] = tested on: SF-295; experiment: Tested for cytostatic activity against Central nervous system SF-295 cell line of NCI 60 tumor cell line panel; format: functional; conditions: Homo sapiens
[17] = tested on: Hs-578T; experiment: Tested for cytostatic activity against Breast Hs 578.T cell line of NCI 60 tumor cell line panel; format: functional; conditions: Homo sapiens
[18] = tested on: MOLT-4; experiment: Tested for cytostatic activity against Leukemia MOLT-4 cell line of NCI 60 tumor cell line panel; format: functional; conditions: Homo sapiens
[19] = tested on: EKVX; experiment: Tested for cytostatic activity against non small cell lung(NSCL) EKVX cell line of NCI 60 tumor cell line panel; format: functional; conditions: Homo sapiens
[20] = tested on: A498; experiment: Tested for cytostatic activity against Renal A-498 cell line of NCI 60 tumor cell line panel; format: functional; conditions: Homo sapiens
[21] = tested on: SK-MEL-2; experiment: Tested for cytostatic activity against Melanoma SK-MEL2 cell line of NCI 60 tumor cell line panel; format: functional; conditions: Homo sapiens
[22] = tested on: HCC 2998; experiment: Tested for cytostatic activity against colon HCC2998 cell line of NCI 60 tumor cell line panel; format: functional; conditions: Homo sapiens
[23] = tested on: OVCAR-3; experiment: Tested for cytostatic activity against Ovarian OVCAR-3 cell line of NCI 60 tumor cell line panel; format: functional; conditions: Homo sapiens
[24] = tested on: DU-145; experiment: Tested for cytostatic activity against Prostate DU-145 cell line of NCI 60 tumor cell line panel; format: functional; conditions: Homo sapiens
[25] = tested on: L1210; experiment: Effect in the G2/M phase of L1210 leukemia cell with a significant percentage of cells having 8N DNA content at 1 uM; format: functional, Mus musculus
[26] = tested on: L1210; experiment: Effect in the G2/M phase of L1210 leukemia cell with a significant percentage of cells having 8N DNA content at 25 uM; format: functional, Mus musculus
[27] = tested on: L1210; experiment: Effect in the G2/M phase of L1210 leukemia cell with a significant percentage of cells having 8N DNA content at 10 uM; format: functional, Mus musculus
[28] = Inhibition of tubulin polymerization; format: functional

`COc1cc(-c2csc3c2-n2cccc2C3=O)cc(OC)c1OC` gave an IC50 [1] of 36.4 µM.
`O=C1c2scc(-c3cccc(O)c3)c2-n2cccc21` showed an IC50 [1] of 29 µM.
For `COc1ccccc1-c1csc2c1-n1cccc1C2=O`, the IC50 [1] was 18.9 µM and the Effect [2] was 75%.
Work on `O=C1c2scc(-c3ccc(O)c(O)c3)c2-n2cccc21` yielded an IC50 [1] of 0.28 µM and an Effect [3] of 86%.
`Cc1csc2c1-n1cccc1C2=O` showed an IC50 [1] of over 100 µM.
In the case of `O=C1c2scc(-c3ccccc3O)c2-n2cccc21`, the IC50 [1] is reported as 3.7 µM and the Effect [4] is reported as 72%.
`COc1ccc(-c2csc3c2-n2cccc2C3=O)cc1O` showed an IC50 [1] of 0.015 µM, an IC50 [5] of 0.036 µM and an IC50 [6] of 0.015 µM. For the same compound, the IC50 [7] was 0.038 µM, the IC50 [8] was 0.023 µM and the IC50 [9] was 0.043 µM. It also gave an IC50 [10] of 0.018 µM, an Effect [3] of 80% and an IC50 [11] of 2.9 µM. The IC50 [12] was 0.021 µM, the IC50 [13] was 0.041 µM and the IC50 [14] was 0.015 µM. The IC50 [15] was 0.031 µM.
Work on `O=C1c2scc(-c3ccc(Cl)cc3)c2-n2cccc21` yielded a GI50 [16] of over 100 µM, a GI50 [17] of 2 µM and a GI50 [18] of 79.4 µM. It also gave a GI50 [19] of 2.51 µM, a GI50 [20] of 1 µM and a GI50 [21] of over 100 µM. It also gave a GI50 [22] of over 100 µM, a GI50 [23] of over 100 µM and a GI50 [24] of over 100 µM.
Work on `CCCOc1ccc(-c2csc3c2-n2cccc2C3=O)cc1` yielded an IC50 [1] of 28.1 µM.
In the case of `CCOc1ccc(-c2csc3c2-n2cccc2C3=O)cc1`, the IC50 [1] is reported as 0.43 µM and the Effect [25] is reported as 88%.
`O=C1c2sccc2-n2cccc21` showed an IC50 [1] of over 100 µM.
`COc1ccc(-c2csc3c2-n2cccc2C3=O)cc1OC` showed an IC50 [1] of 11.7 µM and an Effect [26] of 86%.
`O=C1c2scc(-c3ccccc3)c2-n2cccc21` gave an IC50 [1] of 26.7 µM, a GI50 [16] of 20 µM and a GI50 [17] of 5.01 µM. For the same compound, the GI50 [18] was 12.6 µM, the GI50 [19] was 5.01 µM and the GI50 [20] was 1.58 µM. It also gave a GI50 [21] of 12.6 µM, a GI50 [22] of 20 µM and a GI50 [23] of 15.8 µM. For the same compound, the GI50 [24] was 25.1 µM.
With `O=C1c2scc(-c3ccc(F)cc3)c2-n2cccc21` the GI50 [16] was 25.1 µM, the GI50 [17] was 20 µM and the GI50 [18] was 25.1 µM. The GI50 [19] was 25.1 µM, the GI50 [20] was 1.58 µM and the GI50 [21] was 31.6 µM. For the same compound, the GI50 [22] was 25.1 µM, the GI50 [23] was 50.1 µM and the GI50 [24] was 79.4 µM.
In the case of `COc1cc(-c2csc3c2-n2cccc2C3=O)ccc1O`, the IC50 [1] is reported as 8 µM and the Effect [26] is reported as 86%.
`O=C1c2scc(-c3ccc4c(c3)OCO4)c2-n2cccc21` showed an IC50 [1] of 4.2 µM and an Effect [27] of 88%.
`CCCCOc1ccc(-c2csc3c2-n2cccc2C3=O)cc1` showed an IC50 [1] of 29.6 µM.
`COc1ccc(-c2csc3c2-n2cccc2C3=O)cc1` gave an IC50 [1] of 0.19 µM, a GI50 [16] of 0.0398 µM and a GI50 [17] of 0.0501 µM. The GI50 [18] was 0.0398 µM, the GI50 [19] was 0.794 µM and the GI50 [20] was 0.631 µM. The GI50 [21] was 0.398 µM, the Effect [3] was 83% and the GI50 [22] was 0.316 µM. For the same compound, the GI50 [23] was 0.0398 µM and the GI50 [24] was 0.158 µM.
In the case of `COc1cccc(-c2csc3c2-n2cccc2C3=O)c1`, the IC50 [1] is reported as 5.2 µM and the Effect [26] is reported as 94%.
In the case of `O=C1c2scc(-c3ccc(O)cc3)c2-n2cccc21`, the IC50 [1] is reported as 30.1 µM.
In the case of `COc1cc([C@@H]2c3cc4c(cc3C[C@H]3COC(=O)[C@@H]32)OCO4)cc(OC)c1OC` [DESOXYPODOPHYLLOTOXIN], the IC50 [28] is reported as 2.4 µM.

Source: ChEMBL document CHEMBL1133918, “Design, synthesis and antiproliferative activity of tripentones: a new series of antitubulin agents” (Bioorg Med Chem Lett, 2001)
